Literature values, collected in article PMC11767451, “Novel Approaches to Monitor Pharmacokinetics and Metabolism of Gemcitabine-Ibandronate Conjugate in Mice and Dogs” (Molecules, 2025).

System: bone-associated cancer cells
Design: method as in PMID 30413669
Details: cited from earlier work

SMILES: CC(O)(P(=O)(O)O)P(=O)(O)OP(=O)(O)OC[C@H]1O[C@@H](n2ccc(N)nc2=O)[C@@H](O)[C@@H]1O (stereo partly drawn) [MBC-11]
- bone localized effects compared to free cytarabine (clinical trials): 2–20 fold
- metabolic activity of bone-associated cancer cells (in humans): significant reductions
- tolerability (in humans): well tolerated
